“Also recorded” adds a separate entry of the source. Positions of bridges follow the written chain, without caps; N, C: chain ends. Residues, ends and D or L forms follow the SMILES beside them.
How the values were obtained:
hiPS-CMs monolayer = assay: Electric field potential of hiPS-CM monolayers (CardioExcyte96); type: cell-based, human
Source text: The excitability abnormalities recorded on single hiPS-CM APs should translate into larger abnormalities when these cells are interacting with each other in monolayers. To assess this issue, we investigated the electrical excitability of hiPS-CM monolayers using the CardioExcyte96 system (Nanion). This system monitors both the electric field potential (EFP), which reflects the concerted electrical activity of the cell monolayer, and the impedance changes due to cell contractions, which will be described below. […] As saturating concentrations of BeKm-1 (100 nM) induced the arrest of spontaneous APs in individual cells, we were interested to see what may happen on a monolayer of hiPS-CMs.
hiPS-CMs: All experiments were performed on the human-induced pluripotent stem cell (hiPSC) clone C2a that has been previously characterized, including cardiac differentiation and electrophysiology data. Cells were expanded on stem cell-qualified matrigel-coated plates (0.05 mg/mL; BD Bioscience, Le Pont de Claix, France) and cultured in StemMACS iPS-BREW XF medium (Miltenyi Biotec, Paris, France). Cells were passaged every […] using Gentle Cell Dissociation Buffer (StemCell Technologies, Grenoble, France). Prior to differentiation, cells were cultured as a monolayer in StemMACS iPS-brew supplemented with 1 × Y-27632 Rho-associated, coiled-coil containing protein kinase (ROCK) inhibitor (StemCell Technologies, Grenoble, France). When hiPSCs reached proper confluence, they were differentiated into cardiomyocytes using previously described « Matrix sandwich » protocol. At day 20 ± 1 of differentiation, beating cardiomyocytes were manually dissected and isolated from non-beating cells. Briefly, cardiomyocytes were washed with phosphate-buffered saline (PBS) and treated with TrypLE Express (10x) (Thermo Fisher Scientific, Illkirch-Graffenstaden, France) for 5 min at 37 °C. The enzyme was inactivated by adding RPMI1640 medium containing 20% (vol/vol) KnockOut Serum Replacement (KSR) (Thermo Fisher Scientific, Illkirch-Graffenstaden, France). […]
The beating properties and the electrical field potentials of hiPS-CMs were evaluated with a CardioExcyte96 system. […] Meanwhile, cells were monitored to ensure the full stabilization of beating parameters until BeKm-1 was tested at various concentrations ([…]). Tfall and Trise were determined as the time between 10% and 90% of contraction or relaxation, respectively. Pulse width (PWx) was determined as the time corresponding to the width of the signal at 90% of relaxation. Electric field potentials (EFPs) were recorded using CardioExcyte96 system. For both contraction and EFPs, 10 sequences of 30 s of acquisition were analyzed before and after BeKm-1 addition. […]

rabbit heart = test system: rabbit heart; design: method as in PMID 21205913; details: ref [8]; cited from earlier work
hiPS-CMs = assay: Intracellular Ca^2+ transients in hiPS-CMs (Fluo-4, confocal); type: cell-based, human; details: 5 nM
Experimental: As Ca^2+ influx abnormalities are likely to be at the root of electrophysiological disorders observed in the presence of BeKm-1, we sought to investigate the effects of this compound on hiPS-CM calcium dynamics. In order to test this, intracellular Ca^2+ transients (CaT) were monitored by confocal microscopy using the Fluo4 Ca^2+-sensitive dye in presence of 5 nM BeKm-1. […] The average interval was raised from 3.3 ± 1.7 sec (n = 8, vehicle) to 4.9 ± 2.2 sec (n = 8, 5 nM BeKm-1) (Figure S4C). In addition, we observed a reduction of CaT amplitude from 1.8 ± 0.2 (n = 8, vehicle) to 0.8 ± 0.2 (n = 8, 5 nM BeKm-1) (Figure S4D). […] The altered shape of the CaT was due to a slower time to peak (1.1 ± 0.1 s with vehicle vs. 2.2 ± 0.4 s with 5 nM BeKm-1, n = 8) (Figure S4E), possibly indicating a slower release from internal stores associated to a reduced entry by VGCC (largely due to the impact of RMP depolarization).
hiPS-CMs: All experiments were performed on the human-induced pluripotent stem cell (hiPSC) clone C2a that has been previously characterized, including cardiac differentiation and electrophysiology data. Cells were expanded on stem cell-qualified matrigel-coated plates (0.05 mg/mL; BD Bioscience, Le Pont de Claix, France) and cultured in StemMACS iPS-BREW XF medium (Miltenyi Biotec, Paris, France). Cells were passaged every […] using Gentle Cell Dissociation Buffer (StemCell Technologies, Grenoble, France). Prior to differentiation, cells were cultured as a monolayer in StemMACS iPS-brew supplemented with 1 × Y-27632 Rho-associated, coiled-coil containing protein kinase (ROCK) inhibitor (StemCell Technologies, Grenoble, France). When hiPSCs reached proper confluence, they were differentiated into cardiomyocytes using previously described « Matrix sandwich » protocol. At day 20 ± 1 of differentiation, beating cardiomyocytes were manually dissected and isolated from non-beating cells. Briefly, cardiomyocytes were washed with phosphate-buffered saline (PBS) and treated with TrypLE Express (10x) (Thermo Fisher Scientific, Illkirch-Graffenstaden, France) for 5 min at 37 °C. The enzyme was inactivated by adding RPMI1640 medium containing 20% (vol/vol) KnockOut Serum Replacement (KSR) (Thermo Fisher Scientific, Illkirch-Graffenstaden, France). The supernatant was removed, and cells were suspended in RPMI1640 medium containing 20% (vol/vol) KSR and ROCK inhibitor. Then, the cells were plated on specific supports suitable for functional assessments.
Calcium transients of hiPS-CMs were evaluated using the Fluo-4 reported dye and a Nikon A1R confocal microscope. Dissociated hiPS-CMs were plated and maintained on µ-slide 8-well IBIDI plates for 12 ± 1 days prior to experiments. On the day of the experiments, cells were loaded for 20 min with 3 µM Fluo-4 AM Ca^2+ indicator (Thermo Fisher Scientific, Illkirch-Graffenstaden, France) in culture medium at 37 °C. Then, to allow complete de-esterification of the Ca^2+ probe, the medium was replaced and cells were re-incubated at 37 °C for another 20 min. All recordings were performed in Tyrode’s solution, cells being placed at 37 °C in an experimental chamber. Confocal microscopy was performed using a Nikon A1R confocal inverted microscope (Nikon Corp, Tokyo, Japan) with a Nikon X60 Plan-Apo numerical aperture 1.4 oil-immersion objective (MicroPICell core facility). Fluo-4 AM was excited using the 488 nm line from an argon laser and fluorescence emission was measured at >505 nm. Images were acquired between 15.5 and 56.4 frames/s in X-Y mode, with a resolution of 1024 × 1024 pixels ([…]).

Structure (SMILES): CC[C@H](C)[C@H](NC(=O)[C@H](CC(=O)O)NC(=O)[C@@H](NC(=O)[C@@H]1CCCN1C(=O)[C@@H](N)CCCNC(=N)N)[C@@H](C)O)C(=O)N[C@@H](CCCCN)C(=O)N[C@H]1CSSC[C@@H]2NC(=O)[C@H](CCCNC(=N)N)NC(=O)CNC(=O)[C@H](CC(N)=O)NC(=O)[C@H]([C@@H](C)O)NC(=O)[C@H](CCCCN)NC(=O)CNC(=O)[C@H](Cc3ccccc3)NC(=O)[C@H](CCCNC(=N)N)NC(=O)[C@H](CO)NC(=O)[C@H](CCCCN)NC(=O)[C@@H]3CSSC[C@@H](C(=O)N[C@@H](Cc4ccccc4)C(=O)O)NC(=O)[C@H](CC(=O)O)NC(=O)[C@H](CSSC[C@H](NC(=O)[C@H](CCC(N)=O)NC(=O)[C@H](Cc4ccc(O)cc4)NC(=O)[C@H](CO)NC(=O)[C@H](CCC(=O)O)NC(=O)[C@H](CO)NC1=O)C(=O)N[C@@H](Cc1ccccc1)C(=O)N1CCC[C@H]1C(=O)N[C@@H](C(C)C)C(=O)N3)NC(=O)[C@H](Cc1ccccc1)NC(=O)CNC(=O)[C@H](CC(N)=O)NC(=O)[C@H](C(C)C)NC2=O [BeKm-1] (H-RPTDIKCSESYQCFPVCKSRFGKTNGRCVNGFCDCF-OH; disulfide 7-28, 13-33, 17-35 (inferred); N-terminus and C-terminus assumed)
- EFP duration (hiPS-CMs monolayer; 2 nM, 37 °C, vehicle 2.8 ± 0.1 s, n = 5, mean ± SEM): 3.4 ± 0.2 s
- spontaneous depolarization in EFP (hiPS-CMs monolayer; 2 nM, Figure 4A): presence of spontaneous depolarization
- EFP arrhythmic waveforms (hiPS-CMs monolayer; 100 nM): sustained waveforms of tachyarrhythmia, and TdP-like polymorphic waveforms; also recorded: increase in beats frequency and fibrillation-like pattern
- EFP frequency (hiPS-CMs monolayer; 100 nM, 37 °C, vehicle 0.2 ± 0.1 Hz, n = 5, mean ± SEM, significant): 0.7 ± 0.1 Hz
- QT interval in ECG (rabbit heart): prolongs the QT interval
- average interval between CaT (hiPS-CMs; 37 °C, vehicle 3.3 ± 1.7 sec, n = 8, mean ± SEM): 4.9 ± 2.2 s
- CaT amplitude (hiPS-CMs; F/F0 (Figure S4D), vehicle 1.8 ± 0.2, n = 8, mean ± SEM): 0.8 ± 0.2
- cytoplasmic Ca^2+ handling (integration of Ca^2+ signals) (hiPS-CMs; Figure S4G): non-significant decrease
- variability of CaT intervals (hiPS-CMs; Poincaré plot, Figure S4B): great variability
- kinetics of the CaT decay phase (hiPS-CMs; tau of decay, Figure S4F): no alterations
- CaT time to peak (hiPS-CMs; vehicle 1.1 ± 0.1 s, n = 8, mean ± SEM): 2.2 ± 0.4 s

Reference: article PMC7582727, “Functional Impact of BeKm-1, a High-Affinity hERG Blocker, on Cardiomyocytes Derived from Human-Induced Pluripotent Stem Cells” (International Journal of Molecular Sciences, 2020)
